A melting point compilation (Tetko et al.; mined from patent text by program, amines drawn as free bases though some values may be those of a salt)

SMILES | melting point [°C]
Fc1ccc(CN2CCCC(Nc3nccc(-c4c(-c5ccc(F)cc5)nc5sccn45)n3)C2)cc1 (stereo not drawn) | 131 to 133
CCCc1nc(C)c(C(=O)O)n1Cc1ccc2oc(-c3ccccc3NS(=O)(=O)C(F)(F)F)c(Br)c2c1 | 168 to 170
CC(C)(C)C(Cc1ccccc1)C(=O)n1ccnc1 (stereo not drawn) | 90 to 91
Cc1ccc(N(CCN2CCC(C(=O)c3ccc(F)cc3)CC2)C(=O)c2cccc(N)c2)cc1 | 173 to 175
O=C1CCC(N2C(=O)c3cccc(OCc4ccc(CN5CCN(CC(F)(F)F)CC5)cc4)c3C2=O)C(=O)N1 (stereo not drawn) | 163 to 165
O=C1NC(=O)C(CCOc2ccccc2)S1 (stereo not drawn) | 81 to 83
CCC1(c2cn(-c3c(Cl)cc(C(F)(F)F)cc3Cl)nc2C#N)CC1(Br)Br (stereo not drawn) | 107 to 108
COc1ccc(S(=O)(=O)c2sc(S(N)(=O)=O)cc2C)cc1 | 140 to 143
CC1(C)C=C(C(=O)CCCN2CCC(C(O)(c3ccccc3)c3ccccc3)CC2)C=CC1CCO (stereo not drawn) | 135 to 137
NS(=O)(=O)c1ccc(NC(=O)Nc2ccc(F)cc2)cc1 | 242 to 243
COC(=O)c1ccc(CNC(=O)OCc2ccccc2)cc1O | 91 to 92
CCC(Oc1ccc(C=Cc2nc[nH]n2)cc1)C(N)=O (stereo not drawn) | 150
CCOC(=O)c1sc(N2CCN(Cc3ccc(C(F)(F)F)cc3)C2=O)nc1C | 126 to 127
O=C1CCC(c2cc(F)c(OC3CCN(C4CCC4)CC3)c(F)c2)=NN1 | 162 to 164
ON=CCc1cccs1 | 92
COc1cccc(Cl)c1C(O)C(N)=O (stereo not drawn) | 116 to 118
COc1cc(Nc2nccc(-c3ccc(N4CCNC(CO)C4)nc3)n2)cc(OC)c1OC (stereo not drawn) | 118 to 119
COc1cccc(-c2cnn(-c3ccccn3)c2)c1 | 89 to 90
Cc1cc([N+](=O)[O-])c2c(c1SC(=O)N(C)C)CCC2 | 180
CCCc1cc2cc(OCC(=O)O)c(Cl)c(Cl)c2s1 | 165 to 166
CN(C)CCn1c2ccc(O)cc2c2c3c(c(-c4ccccc4)cc21)C(=O)NC3=O | 283 to 286
CN(C(=O)C(=O)c1cn(Cc2ccc(Cl)cc2)c2ccccc12)C1=CC(=O)OC1 | 205 to 208
NNC(=O)CCCCC(=O)N(NC(=O)c1ccccc1O)C(=O)c1ccccc1O | 252
CSc1nc(-c2ccc(F)cc2)c(-c2ccnc(OC(C)C)c2)[nH]1 | 141
CN(C)CCN(C(=O)N(C)C)c1nc2ccccc2[nH]1 | 193 to 195

SMILES | melting point [°C]
CCCCCCCCCCCc1nc2c(O)c(Cl)cc(Cl)c2cc1CCCCCCCCCC | 46 to 47
CC(=O)OC1CSC(Oc2cncc(-c3ccc(C)c(C)c3)c2)C(OC(C)=O)C1OC(C)=O (stereo not drawn) | 131
COc1ccc(Cl)cc1C(=O)NCCc1ccc(-c2ccc(O)cc2)cc1 | 169
CN(C)Cc1ncc2c(c1O)COC2(c1ccccc1)c1ccc(F)cc1 (stereo not drawn) | 184
Cc1cccnc1-c1cncc(OC2SCC(O)C(O)C2O)c1 (stereo not drawn) | 162 to 175
CCc1onc(-c2ccccc2)c1C(=O)NCCCCl | 75 to 76
CCC(=O)N1N=C(c2ccc(N)cc2)c2cc(C)ccc2CC1C (stereo not drawn) | 166 to 168
CNS(=O)(=O)Cc1ccc2[nH]cc(CCN=CNc3ccccc3)c2c1 | 72 to 73
CSc1cc(-c2ccc(Cl)cc2)nc(-c2cccc(Cl)c2)c1 | 98.4
CCCN1c2cscc2CN(C)c2ccccc21 | 90 to 92
CC(Oc1ncn(-c2ccc(Cl)c(Cl)c2)n1)C(=O)O (stereo not drawn) | 222 to 224
CC(=O)Nc1ccc(NC2CCN3CCc4ccccc4C3C2)cc1 (stereo not drawn) | 210 to 213
CC(=O)Nc1nc2c(Oc3cc(-c4ccc(C(F)(F)F)cc4NC(=O)C4CCCCN4C(C)C)ncn3)cccc2s1 (stereo not drawn) | 260
CN(C)CCNCc1ccc(-c2cc3ncnc(Nc4ccc5[nH]ccc5c4)c3s2)cc1 | 170 to 183
COC1OCC[C@@H]1NC(=O)[C@H](CC(C)C)NC(=O)[C@H](CC(C)C)NC(=O)[C@H](CC(C)C)NC(=O)c1ccc2c(c1)Nc1ccccc1S2 (stereo partly drawn) | 164 to 165
Cc1c(C(=O)O)nc2c(=O)[nH]c3ccc(-n4ccnc4)cc3n12 | > 250
Cc1ccc(S(=O)(=O)N2CCCC2CO)cc1 (stereo not drawn) | 90 to 91
CSc1nc2ccc(C)cc2c(=O)s1 | 114
CCC1(CC)c2cc(Br)ccc2-c2ccc(Br)cc21 | 144 to 153
CN(C)c1ccc(C=O)c(OCC#N)c1 | 124 to 125
CC1(COc2ccc([N+](=O)[O-])cc2)CC(=O)c2cc(C(=O)O)ccc2O1 (stereo not drawn) | 227 to 235
CC(C)(C)OC(=O)NC(Cc1ccc(OCc2ccccc2)cn1)C(=O)NCc1ccc(C(=O)NO)cc1 (stereo not drawn) | 106 to 108
Nc1ncnc2[nH]c(Br)c(-c3ccc(Oc4ccccc4)cc3)c12 | 282 to 283
CCOCc1cc(N2C(=O)C3=C(CCCC3)C2=O)c(F)cc1Br | 104 to 106
O=C(O)Cc1cc(C(=O)C=Cc2ccc(Cl)cc2Cl)ccc1O | 232

SMILES | melting point [°C]
N#Cc1ncccc1COc1cccc(F)c1 | 52 to 53
O=C1CCC2c3ccccc3CCC2N1 (stereo not drawn) | 227 to 228
CN(Cc1cccc2c1CN(C1CCC(=O)NC1=O)C2=O)C(=O)Nc1ccccc1 (stereo not drawn) | 186 to 188
COc1ccc(C(=O)Nc2c(Cl)cncc2Cl)c2c3cc(Cl)ccc3n(Cc3ccc(F)cc3)c12 | 249 to 250
CCCN(CCC)CCCOc1ccc(S(=O)(=O)c2c(C)cn3ccccc23)cc1 | 107 to 108
CCOc1ccc(CC(=O)Nc2ccc(S(=O)(=O)Nc3ccccc3C(=O)O)cc2)cc1 | 241 to 242
CN(C)c1ccc(C(=O)N(CCN2CCC(C(=O)c3ccc(F)cc3)CC2)c2cccnc2)cc1 | 147 to 152
Nc1sc2c(c1C(=O)c1ccc3ccccc3c1)CCN(Cc1ccc(F)cc1)C2 | 94 to 96
O=c1ccoc(CO)c1O | 154 to 156
Oc1nc(-c2ccc3c(c2)CCO3)nc2ccccc12 | 289 to 294
O=C(c1oc2ccc(N3CCN(Cc4ccccc4)CC3)cc2c1Br)N(Cc1ccccc1)Cc1ccccc1 | 196 to 198
OCC1=CC=C(CO)SS1 | 64 to 66
CCOCCn1c(NC2CCN(C(=O)c3ccccc3N)C(Cc3ccccc3)C2)nc2ccccc21 (stereo not drawn) | 197
CCc1nnc(-c2ccc(O)cc2)n1-c1ccc(O)cc1 | 317 to 318
CCC[C@H]1CC[C@H]([C@H]2CC[C@H](c3ccc(C(C)=O)cc3)CC2)CC1 | 81
COc1cc2c(cc1OC)-c1[nH]c3ccc(O)cc3c1C2=O | > 260
Cc1nn(C2CCCC2C)c(N)c1C#N (stereo not drawn) | 158 to 159
COc1ccc(-c2nc(Sc3ccc(Cl)c(Cl)c3)n(C3CCCCO3)c2-c2ccc(OC)cc2)cc1 (stereo not drawn) | 125 to 127
CC(C)(C)OC(=O)N[C@H](Cc1cccc(OC(F)(F)C(F)F)c1)[C@@H](O)c1csc(-c2ccccc2)n1 (racemic) | 127 to 128
COc1cc(Nc2nc3c(s2)CCCC3c2ccccc2)ccc1-c1nc(C)no1 (stereo not drawn) | 228 to 231
COc1ccc(C=N[C@H]2C(O)O[C@H](CO)[C@@H](O)[C@@H]2O)cc1 (stereo partly drawn) | 165
CCOC(=O)c1ccccc1NC(=O)Nc1ccccc1I | 162 to 164
COc1ccccc1-n1cc(-c2ccccc2)c(OCC(=O)O)n1 | 170 to 174
N[C@H](C(=O)O)c1ccc(OCCOC2CCCCC2)cc1 | 219 to 220
N#CC(Cc1c(Cl)cccc1Cl)C(=O)O (stereo not drawn) | 106 to 108

SMILES | melting point [°C]
COc1cc(NC(=O)Nc2c(-c3ccccc3Cl)c3cc(C)ccc3oc2=O)cc(OC)c1OC(C)=O | 238 to 240
CNc1nc2c(s1)C(=O)CCC2 | 180 to 182
Cn1ncc2c1-c1c(S(C)(=O)=O)sc(S(N)(=O)=O)c1CC2 | 228 to 229
COC1CC(OC)(OC)C(=O)O1 (stereo not drawn) | 55
Cc1[nH]c2ccccc2c1C1=C(c2c(C)[nH]c3ccccc23)C(=O)NC1=O | 311 to 313
CCOC(=O)C1=C(C(=O)OC)CC(=O)C2=C1SC=C1C=CC=CN12 | 143 to 144
CC(=O)Oc1c(C)c(C)c2c(c1C)C(=O)CC(C)(COc1ccc(N)cc1)O2 (stereo not drawn) | 177 to 178
O=C(Nc1ccc(-n2nc(C(F)(F)F)cc2C(F)(F)F)cc1-n1nc(C(F)(F)F)cc1C(F)(F)F)c1ccc(F)cc1F | 114 to 115
Clc1ccc(-c2ccc(OCCCBr)cc2)cc1 | 103 to 105
CCCCCCCCCCCCCC[C@@H]1CO[C@@H](CO)C1 (relative stereo) | 27.1 to 27.7
CCOC(=O)c1cc(-c2cc(OC)cc(OC)c2)ns1 | 101 to 103
CSc1cc(C(=O)C(C#N)C(=O)C2CC2)ccc1C (stereo not drawn) | 64.7 to 67.9
CC(C)N1CC(C(C(N)=O)(c2ccccc2)c2ccccn2)C1 (stereo not drawn) | 140 to 141
Cc1ccc2ncn([C@H](C)[C@](O)(Cn3cncn3)c3ccc(F)cc3F)c(=O)c2c1 | 189 to 190
N=C(N)NCCc1ccc(NC(=O)CC(c2ccccc2)(c2ccccc2)c2ccccc2)cc1 | 213 to 215
CS(=O)(=O)c1ccc(-c2ncccc2C(=O)c2ccccn2)cc1 | 143 to 147
Clc1ccc(CNc2ccccc2-n2ccnc2)c(Cl)c1 | 100 to 103
O=c1ccoc(C(OC2CCCCO2)c2ccccc2)c1OCc1ccccc1 (stereo not drawn) | 115 to 116
CC(C)C[C@H](NC(=O)OCc1ccccc1)C(=O)N[C@@H](Cc1ccccc1)C(=O)CSCc1ccccc1 | 86 to 87
CCCCC1=NC2(CCCC2)C(=O)N1Cc1ccc(-c2ccccc2S(=O)(=O)Nc2noc(C)c2C)c(CN2CCCC2=O)c1 | 97 to 103
O=c1nc(Cc2ccccc2)nc2n(C3CCCC3)[nH]c(Cc3ccccc3)c1-2 | 204 to 206
CCCCc1nn(-c2ccccc2Cl)c(=O)n1Cc1ccc(-c2ccccc2S(=O)(=O)NC(=O)C(F)(F)F)cc1 | 163 to 166
CC1(C)OCC(=CCn2cnc3c(Cl)nc(N)nc32)CO1 | 157 to 159
